Reference: patent US6875760B2 (Novo Nordisk A/S, priority 1999, dated 2005)

Target: T1, human glucagon receptor (Homo sapiens, UniProt P47871)
T1 construct: expressed in transfected cells; host or cells: BHK (baby hamster kidney) cells
Experiment: Glucagon Binding Assay (III)
Conditions: BHK cell membranes, WGA SPA beads, 125I-glucagon; read-out: Glu Bd Assay (III) IC50
In short: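 Non-specific binding was set with 500 nM glucagon in this SPA-type binding assay using WGA beads. The receptor source was a membrane preparation, kept on ice or at 4 °C, from BHK cells transfected with the human receptor. Scintillation counts were taken after 4 hours of shaking and 8–48 hours of settling.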

T1 sequence (P47871 26-477): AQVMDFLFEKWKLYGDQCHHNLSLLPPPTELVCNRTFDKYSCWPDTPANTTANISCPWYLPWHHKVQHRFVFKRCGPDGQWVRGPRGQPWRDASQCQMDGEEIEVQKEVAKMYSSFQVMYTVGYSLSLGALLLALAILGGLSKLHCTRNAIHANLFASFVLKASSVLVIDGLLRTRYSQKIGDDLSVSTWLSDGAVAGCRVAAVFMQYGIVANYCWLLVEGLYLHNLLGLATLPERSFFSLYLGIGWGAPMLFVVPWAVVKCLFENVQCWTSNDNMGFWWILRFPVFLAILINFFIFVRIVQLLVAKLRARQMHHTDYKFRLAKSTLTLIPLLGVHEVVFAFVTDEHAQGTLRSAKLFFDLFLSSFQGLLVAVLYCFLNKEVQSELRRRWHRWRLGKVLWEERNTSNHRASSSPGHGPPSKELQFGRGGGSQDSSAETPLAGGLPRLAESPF

Row | IC50 [nM] | Compound
1 | 880 | CC(Oc1ccc(OC(F)(F)F)cc1)C(=O)N(Cc1ccc(C(=O)Nc2nn[nH]n2)cc1)c1ccc(C2CCCCC2)cc1 (stereo not drawn) [Example 493]
2 | 32 | CC(C)(C)[Si](C)(C)OCc1cc(NC(=O)N(Cc2ccc(C(=O)Nc3nn[nH]n3)cc2)c2ccc(C3CCCCC3)cc2)ccc1OC(F)(F)F [Example 311, 4-[3-[3-(tert-Butyldimethylsilanyloxymethyl)-4-trifluoromethoxyphenyl]-1-(4-cyclohexylphenyl)ureidomethyl]-N-(2H-tetrazol-5-yl)benzamide]
3 | 302 | CSc1cccc(O)c1C(=O)N(Cc1ccc(C(=O)Nc2nn[nH]n2)cc1)c1ccc(C2CCCCC2)cc1 [Example 482, 4-{[(4-Cyclohexylphenyl)-(2-hydroxy-6-methylsulfanylbenzoyl)amino]methyl}-N-(2H-tetrazol-5-yl)benzamide]
4 | 886 | CC(C)(C)C1CCC(N(Cc2ccc(C(=O)Nc3nn[nH]n3)cc2)C(=O)c2cc3ccccc3o2)CC1 (stereo not drawn) [Example 475, Benzofuran-2-carboxylic acid (4-tert-butylcyclohexyl)-[4-(2H-tetrazol-5-ylcarbamoyl)benzyl]amide]
5 | 773 | O=C(Nc1nn[nH]n1)c1ccc(CN(C(=O)Nc2ccc3c(c2)S(=O)(=O)CC3)c2ccc(C3CCCCC3)cc2)cc1 [Example 258, 4-[1-(4-Cyclohexylphenyl)-3-(1,1-dioxo-2,3-dihydro-1H-1-benzo[b]thiophen-6-yl)ureidomethyl]-N-(2H-tetrazol-5-yl)benzamide]
6 | 201 | CC(C)(C)C1CCC(N(Cc2ccc(C(=O)Nc3nn[nH]n3)cc2)C(=O)Cc2cccc(OC(F)(F)F)c2)CC1 (stereo not drawn) [Example 543, 4-({(4-tert-Butylcyclohexyl)-[2-(3-trifluoromethoxyphenyl)acetyl]amino}methyl)-N-(2H-tetrazol-5-yl)benzamide]
7 | 25 | O=C(Nc1nn[nH]n1)c1ccc(CN(C(=O)Nc2ccc(Cl)c(Cl)c2)c2ccc(C3=CCCCC3)cc2)cc1 [Example 325, 4-[1-(4-Cyclohex-1-enylphenyl)-3-(3,4-dichlorophenyl)ureidomethyl]-N-(2H-tetrazol-5-yl)benzamide]
8 | 955 | CC(C)(C)C1CCC(N(Cc2ccc(C(=O)Nc3nn[nH]n3)cc2)C(=O)/C=C/c2cccs2)CC1 (stereo not drawn) [Example 476, 4-{[(4-tert-Butylcyclohexyl)-(3-thiophen-2-ylacryloyl)amino]methyl}-N-(2H-tetrazol-5-yl)benzamide]
9 | 124 | CC(C)(C)C1CCC(N(Cc2ccc(C(=O)NCCC(=O)O)cc2)C(=O)Nc2ccc(F)c(C(F)(F)F)c2)CC1 (stereo not drawn) [Example 71, 3-{4-[1-(4-tert-Butylcyclohexyl)-3-(4-fluoro-3-trifluoromethylphenyl)ureidomethyl]benzoylamino}propionic acid]
10 | 45 | O=C(Nc1nn[nH]n1)c1ccc(CN(C(=O)Nc2cc(Cl)cc(Cl)c2)c2ccc(C3CCCCC3)cc2)cc1 [Example 304, 4-[1-(4-Cyclohexylphenyl)-3-(3,5-dichlorophenyl)ureidomethyl]-N-(2H-tetrazol-5-yl)benzamide]
11 | 61 | O=C(Nc1nn[nH]n1)c1ccc(CN(C(=O)Nc2cccc([N+](=O)[O-])c2)c2ccc(C3=CCCCC3)cc2)cc1 [Example 308, 4-[1-(4-Cyclohex-1-enylphenyl)-3-(3-nitrophenyl)ureidomethyl]-N-(2H-tetrazol-5-yl)benzamide]
12 | 16 | O=C(Nc1nn[nH]n1)c1ccc(CN(C(=O)Nc2cccc(Br)c2)c2ccc(C3CCCCC3)cc2)cc1 [Example 356, 4-[3-(3-Bromophenyl)-1-(4-cyclohexylphenyl)ureidomethyl]-N-(2H-tetrazol-5-yl)benzamide]
13 | 1160 | CCN(CC)C(=O)c1cccc(NC(=O)N(Cc2ccc(C(=O)Nc3nn[nH]n3)cc2)c2ccc(C(C)(C)C)cc2)c1 [Example 462, N,N-Diethyl-3-{3-(4-tert-butylphenyl)-3-[4-(2H-tetrazol-5-ylcarbamoyl)benzyl]ureido}benzamide]
14 | 72 | CCS(=O)(=O)c1cccc(NC(=O)N(Cc2ccc(C(=O)Nc3nn[nH]n3)cc2)c2ccc(C3CCCCC3)cc2)c1 [Example 453, 4-[1-(4-Cyclohexylphenyl)-3-(3-ethylsulfonylphenyl)ureidomethyl]-N-(2H-tetrazol-5-yl)benzamide]
15 | 38 | CCCCN1C(=O)c2ccc(NC(=O)N(Cc3ccc(C(=O)NCCC(=O)O)cc3)c3ccc(C(C)(C)C)cc3)cc2C1=O [Example 626, 3-{4-[3-(N′-Butylphthalimid-4-yl)-1-(4-tert-butylphenyl)ureidomethyl]benzoylamino}propionic acid]
16 | 94 | CC(C)(C)C1CCC(N(Cc2ccc(C(=O)Nc3nn[nH]n3)cc2)C(=O)Nc2cccc(C#N)c2)CC1 (stereo not drawn) [Example 274, 4-[1-(4-tert-Butylcyclohexyl)-3-(3-cyanophenyl)ureidomethyl]-N-(2H-tetrazol-5-yl)benzamide]
17 | 145 | CCCCOC(=O)c1ccc(NC(=O)N(Cc2ccc(C(=O)NCCC(=O)O)cc2)CC(CC)CCCC)cc1 (stereo not drawn) [Example 37, 4-[3-[4-(2-Carboxyethylcarbamoyl)benzyl]-3-(2-ethylhexyl)ureido]benzoic acid butyl ester]
18 | 197 | O=C(Nc1nn[nH]n1)c1ccc(CN(C(=O)Nc2cccc(SC3CCCC3)c2)c2ccc(C3CCCCC3)cc2)cc1 [Example 300, 4-[1-(4-Cyclohexylphenyl)-3-(3-cyclopentylsulfanylphenyl)ureidomethyl]-N-(2H-tetrazol-5-yl)benzamide]
19 | 819 | CC1CCCC(N(Cc2ccc(C(=O)NCCC(=O)O)cc2)C(=O)Nc2ccc(Oc3ccccc3)cc2)C1 (stereo not drawn) [Example 44, 3-{4-[1-(3-Methylcyclohexyl)-3-(4-phenoxyphenyl)ureidomethyl]benzoylamino}propionic acid]

Second part, the compound before the results:

Row | Compound | IC50 [nM]
20 | O=C(Nc1nn[nH]n1)c1ccc(CN(C(=O)Nc2cccc(Br)c2)c2ccc(C3=CCCCC3)cc2)cc1 [Example 349, 4-[3-(3-Bromophenyl)-1-(4-cyclohex-1-enylphenyl)ureidomethyl]-N-(2H-tetrazol-5-yl)benzamide] | 6
21 | CC(C)(C)c1ccc(N(Cc2ccc(C(=O)Nc3nn[nH]n3)cc2)C(=O)/C=C/c2c(Cl)cccc2Cl)cc1 [Example 479, 4-({(4-tert-butylphenyl)-[3-(2,6-dichlorophenyl)acryloyl]amino}methyl)-N-(2H-tetrazol-5-yl)benzamide] | 819
22 | (4-tert-Butylcyclohexyl)-3-(N′-[cyclopropylmethyl]phthalimid-4-yl)ureidomethyl]-N-(2H-tetrazol-5-yl)benzamide [Example 638] | 11
23 | O=C(Nc1nn[nH]n1)c1ccc(CN(C(=O)Nc2cc(Cl)cc(Cl)c2)c2ccc(N3CCCCC3)cc2)cc1 [Example 316, 4-[3-(3,5-Dichlorophenyl)-1-(4-piperidin-1-ylphenyl)ureidomethyl]-N-(2H-tetrazol-5-yl)benzamide] | 547
24 | O=C(O)CCNC(=O)c1ccc(CN(C(=O)Oc2ccc(Cl)cc2Cl)c2ccc(C3CCCCC3)cc2)cc1 [Example 416, 3-(4-{[(4-Cyclohexylphenyl)-(2,4-dichlorophenoxycarbonyl)amino]methyl}benzoylamino)propionic acid] | 634
25 | CC(C)(C)C1CCC(N(Cc2ccc(C(=O)Nc3nn[nH]n3)cc2)C(=O)CCCc2ccccc2)CC1 (stereo not drawn) [Example 545, 4-([(4-tert-Butylcyclohexyl)-(4-phenylbutyryl)amino]methyl}-N-(2H-tetrazol-5-yl)benzamide] | 47
26 | CC(C)(C)C1CCC(N(Cc2ccc(C(=O)Nc3nn[nH]n3)cc2)C(=O)Nc2cccc(S(C)(=O)=O)c2)CC1 (stereo not drawn) [Example 445, 4-[1-(4-tert-Butylcyclohexyl)-3-(3-methylsulfonylphenyl)ureidomethyl]-N-(2H-tetrazol-5-yl)benzamide] | 204
27 | CC(C)(C)c1ccc(N(Cc2ccc(C(=O)NCCC(=O)O)cc2)C(=O)Oc2ccc(OC(F)(F)F)cc2)cc1 [Example 411, 3-(4-{[(4-tert-Butylphenyl)-(4-trifluoromethoxyphenoxycarbonyl)amino]methyl}benzoylamino)propionic acid] | 704
28 | CC(C)(C)C1CCC(N(Cc2ccc(C(=O)Nc3nn[nH]n3)cc2)C(=O)c2cc3ccccc3s2)CC1 (stereo not drawn) [Example 473, Benzo[b]thiophene-2-carboxylic acid (4-tert-butylcyclohexyl)-[4-(2H-tetrazol-5-ylcarbamoyl)benzyl]amide] | 1500
29 | COc1cc(NC(=O)N(Cc2ccc(C(=O)Nc3nn[nH]n3)cc2)C2CCC(C(C)(C)C)CC2)cc(C(F)(F)F)c1 (stereo not drawn) [Example 602, 4-[1-(4-tert-Butylcyclohexyl)-3-(3-methoxy-5-trifluoromethylphenyl)ureidomethyl]-N-(2H-tetrazol-5-yl)benzamide] | 26
30 | COc1ccc2nc(NC(=O)N(Cc3ccc(C(=O)Nc4nn[nH]n4)cc3)c3ccc(C4CCCCC4)cc3)sc2c1 [Example 365, 4-[1-(4-Cyclohexylphenyl)-3-(6-methoxybenzothiazol-2-yl)ureidomethyl]-N-(2H-tetrazol-5-yl)benzamide] | 1430
31 | CCC(C)c1ccc(N(Cc2ccc(C(=O)Nc3nn[nH]n3)cc2)C(=O)Nc2cccc(S(C)(=O)=O)c2)cc1 (stereo not drawn) [Example 446, 4-[1-(4-sec-Butylphenyl)-3-(3-methylsulfonylphenyl)ureidomethyl]-N-(2H-tetrazol-5-yl)benzamide] | 522
32 | O=C(Nc1nn[nH]n1)c1ccc(CN(C(=O)Nc2cccc(C(F)(F)F)c2)c2ccc(C3CCCCC3)cc2)cc1 [Example 567, 4-[1-(4-Cyclohexylphenyl)-3-(3-trifluoromethylphenyl)ureidomethyl]-N-(2H-tetrazol-5-yl)benzamide] | 5

Same assay, conditions: Glu Bd Assay (III) IC50 (nM), BHK cell membranes, WGA SPA beads, 125I-glucagon

Row | Compound | IC50 [nM]
33 | CC(C)(C)[C@H]1CC[C@H](N(Cc2ccc(C(=O)NCC(=O)O)cc2)C(=O)Nc2ccc(OC(F)(F)F)cc2)CC1 [Example 95, 3-{4-[1-(trans-4-tert-Butylcyclohexyl)-3-(4-trifluoromethoxyphenyl)ureidomethyl]benzoylamino}acetic acid] | 1700
